Test results reported in patent US9902739B2, “Small molecule inhibitors of G protein coupled receptor 6 kinases polypeptides” (Mayo Foundation for Medical Education and Research, priority 2014, dated 2018).
pIC50: −log10 of the molar value.

Target: T1, GRK6, recombinant full-length GST-tagged human protein (Homo sapiens, UniProt P43250)
T1 construct: Enzyme: 20 nM GRK6, recombinant full-length GST-tagged human protein; GST
Experiment: GRK6 assay, IC50 determination (8-point concentration-response)
Assay type: biochemical
Settings: Series 1 (Table 11); 20 nM GRK6, ATP 12 μM (Km), Peptide 216 1 μM, incubation 7 h
Method: The following assay conditions were used.
Buffer: 50 mM TRIS-HCl, pH 7.5, 5 mM MgCl2, 2 mM DTT, 0.01% Triton X-100, 10 μM Na3VO4, 10 μM b-GP, 1% DMSO
Enzyme: 20 nM GRK6, recombinant full-length GST-tagged human protein
Peptide substrate (Peptide 216): 1 μM
One hundred two compounds (1-1-1-102) were further characterized by determining IC50 values in a GRK6 assay. This screen has been previously described in WO 2013/063458, which is incorporated by reference in its entirety herein. Briefly, the following activities were performed: 8-point concentration-response determinations in singlicate wells (top concentration=60 μM, 3-fold dilution steps); Repeat tests for QC failed or inconclusive compounds; and Repeat tests (titrate down) for compounds with >50% inhibition at all tested concentrations.
Twelve compounds (2-1-2-12) were further characterized by determining the IC50 values in a GRK6 assay. This screen has been previously described in WO 2013/063458, which is incorporated by reference in its entirety herein. Specific activities were performed as described above (Example 18).
Thirty-six compounds (3-1-3-36) were further characterized by determining the IC50 values in a GRK6 assay. This screen has been previously described in WO 2013/063458, which is incorporated by reference in its entirety herein. Specific activities were performed as described above (Example 18).
Fifty-four compounds (4-1-4-54) were further characterized by determining the IC50 values in a GRK6 assay. This screen has been previously described in WO 2013/063458, which is incorporated by reference in its entirety herein. Specific activities were performed as described above (Example 18).

T1 sequence (P43250 whole entry): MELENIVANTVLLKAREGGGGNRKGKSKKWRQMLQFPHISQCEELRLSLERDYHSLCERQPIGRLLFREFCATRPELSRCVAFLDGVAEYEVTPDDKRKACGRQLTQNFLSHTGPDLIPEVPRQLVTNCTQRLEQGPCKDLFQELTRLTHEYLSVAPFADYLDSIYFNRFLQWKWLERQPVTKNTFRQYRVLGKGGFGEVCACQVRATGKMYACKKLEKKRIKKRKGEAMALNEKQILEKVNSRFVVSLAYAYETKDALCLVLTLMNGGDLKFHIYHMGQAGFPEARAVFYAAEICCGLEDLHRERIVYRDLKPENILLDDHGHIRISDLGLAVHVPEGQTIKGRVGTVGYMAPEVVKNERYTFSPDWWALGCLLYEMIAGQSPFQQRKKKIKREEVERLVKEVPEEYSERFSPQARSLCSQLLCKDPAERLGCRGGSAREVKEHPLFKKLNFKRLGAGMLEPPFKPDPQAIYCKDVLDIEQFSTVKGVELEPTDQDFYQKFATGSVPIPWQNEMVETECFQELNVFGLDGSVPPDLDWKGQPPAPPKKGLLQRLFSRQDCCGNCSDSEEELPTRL

SMILES	pIC50
N#Cc1c[nH]c2cc(-c3ccc(-c4nnc(SCC(=O)O)[nH]4)o3)ccc12 [Compound 1-33]	6.48
CCCOc1cccc(-c2ccc(-c3nnc(SCC(=O)O)[nH]3)o2)c1 [Compound 1-34]	6.47
O=C(O)CSc1nnc(-c2ccc(-c3ccc4[nH]ccc4c3)o2)[nH]1 [Compound 1-35]	6.46
O=C(O)CSc1nnc(-c2ccc(-c3cccc(Cl)c3)o2)[nH]1 [Compound 1-36]	6.44
Cc1ccc(-c2ccc(-c3nnc(SCC(=O)O)[nH]3)o2)cc1Cl [Compound 1-37]	6.44
CCOc1ccc2ccc(-c3ccc(-c4nnc(SCC(=O)O)[nH]4)o3)cc2c1 [Compound 1-38]	6.44
O=C(O)CSc1nnc(-c2ccc(-c3cc(O)cc(F)c3)o2)[nH]1 [Compound 1-39]	6.44
O=C(O)CSc1nnc(-c2ccc(-c3cccc(OCc4ccc(Cl)c(Cl)c4)c3)o2)[nH]1 [Compound 1-40]	6.44
Cc1cc(-c2ccc(-c3nnc(SCC(=O)O)[nH]3)o2)ccc1Cl [Compound 1-42]	6.41
COc1cc(-c2ccc(-c3nnc(SCC(=O)O)[nH]3)o2)ccc1OCc1ccccc1 [Compound 1-43]	6.40
COc1cccc(-c2ccc(-c3nnc(SCC(=O)O)[nH]3)o2)c1 [Compound 1-44]	6.40
NS(=O)(=O)c1cccc(-c2ccc(-c3nnc(SCC(=O)O)[nH]3)o2)c1 [Compound 1-45]	6.38
O=C(O)CSc1nnc(-c2ccc(-c3ccc4cc[nH]c4c3)o2)[nH]1 [Compound 1-46]	6.38
O=C(O)CSc1nnc(-c2ccc(-c3ccc4occc4c3)o2)[nH]1 [Compound 1-47]	6.37
O=C(O)CSc1nnc(-c2ccc(-c3cccc(OCc4ccc5ccccc5c4)c3)o2)[nH]1 [Compound 1-48]	6.34
COc1ccc2cc(-c3oc(-c4nnc(SCC(=O)O)[nH]4)cc3Br)ccc2c1 [Compound 1-49]	6.34
O=C(O)CSc1nnc(-c2ccc(-c3ccc(Cl)cc3)o2)[nH]1 [Compound 1-50]	6.33
CCOc1ccc(-c2ccc(-c3nnc(SCC(=O)O)[nH]3)o2)cc1Cl [Compound 1-51]	6.30
O=C(O)CSc1nnc(-c2ccc(-c3cccc(OCc4cccc(C(F)(F)F)c4)c3)o2)[nH]1 [Compound 1-52]	6.30

SMILES	pIC50
COc1ccc(/C=C/c2ccc(-c3nnc(SCC(=O)O)[nH]3)o2)cc1 [Compound 1-53]	6.29
COc1ccc(-c2ccc(-c3nnc(SCC(=O)O)[nH]3)o2)cc1OCc1ccccc1 [Compound 1-54]	6.29
O=C(O)CSc1nnc(-c2ccc(-c3c[nH]c4ccccc34)o2)[nH]1 [Compound 1-55]	6.25
O=C(O)CSc1nnc(-c2ccc(-c3cccc(C(F)(F)F)c3)o2)[nH]1 [Compound 1-56]	6.23
O=C(O)CSc1nnc(-c2ccc(-c3cc4cc(F)ccc4[nH]3)o2)[nH]1 [Compound 1-57]	6.22
O=C(O)CSc1nnc(-c2ccc(-c3cccc(OCc4ccc(Cl)c(C(F)(F)F)c4)c3)o2)[nH]1 [Compound 1-58]	6.21
O=C(O)CSc1nnc(-c2ccc(-c3cccc([N+](=O)[O-])c3)o2)[nH]1 [Compound 1-59]	6.21
O=C(O)CSc1nnc(-c2ccc(-c3cccc(OCc4ccc(C(F)(F)F)cc4)c3)o2)[nH]1 [Compound 1-60]	6.20
Cn1ccc2cc(-c3ccc(-c4nnc(SCC(=O)O)[nH]4)o3)ccc21 [Compound 1-61]	6.20
O=C(O)CSc1nnc(-c2ccc(-c3cccc(O)c3)o2)[nH]1 [Compound 1-62]	6.20
Cn1ncc2ccc(-c3ccc(-c4nnc(SCC(=O)O)[nH]4)o3)cc21 [Compound 1-63, 2-((5-(5-(1-methyl-1H-indazol-6-yl)furan-2-yl)-4H-1,2,4-triazol-3-yl)thio)acetic acid]	6.16
CCOc1cccc(-c2ccc(-c3nnc(SCC(=O)O)[nH]3)o2)c1 [Compound 1-64]	6.15
Cc1ccc(-c2ccc(-c3nnc(SCC(=O)O)[nH]3)o2)cc1[N+](=O)[O-] [Compound 1-65]	6.15
COc1ccc(-c2ccc(-c3nnc(SCC(=O)O)[nH]3)o2)cc1/C=N/OCc1ccccc1 [Compound 1-66]	6.13
CC(C)Oc1cccc(-c2ccc(-c3nnc(SCC(=O)O)[nH]3)o2)c1 [Compound 1-67]	6.13
O=C(O)CSc1nnc(-c2ccc(-c3ccc(Br)cc3)o2)[nH]1 [Compound 1-68]	6.09
Cc1cc2cc(-c3ccc(-c4nnc(SCC(=O)O)[nH]4)o3)ccc2n1C [Compound 1-69]	6.08
O=C(O)CSc1nnc(-c2ccc(-c3cccc4[nH]ccc34)o2)[nH]1 [Compound 1-70]	6.07

Next, values leading:

pIC50	SMILES
7.10	O=C(O)CSc1nnc(-c2ccc(-c3ccc4[nH]cc(-c5ccccc5)c4c3)o2)[nH]1 [Compound 1-1]
6.90	O=C(O)CSc1nnc(-c2ccc(-c3cccc(OCc4cccc([N+](=O)[O-])c4)c3)o2)[nH]1 [Compound 1-2]
6.88	O=C(O)CSc1nnc(-c2ccc(-c3ccc4[nH]c5ccccc5c4c3)o2)[nH]1 [Compound 1-3]
6.88	O=C(O)CSc1nnc(-c2ccc(-c3ccc4[nH]c(-c5ccccc5)cc4c3)o2)[nH]1 [Compound 1-4]
6.86	O=C(O)CSc1nnc(-c2ccc(-c3cccc4[nH]c(-c5ccccc5)cc34)o2)[nH]1 [Compound 1-5]
6.79	N#Cc1cccc(COc2cccc(-c3ccc(-c4nnc(SCC(=O)O)[nH]4)o3)c2)c1 [Compound 1-6]
6.78	N#Cc1ccc(COc2cccc(-c3ccc(-c4nnc(SCC(=O)O)[nH]4)o3)c2)cc1 [Compound 1-7]
6.77	COc1cc(Cl)cc(-c2ccc(-c3nnc(SCC(=O)O)[nH]3)o2)c1 [Compound 1-8]
6.76	O=C(O)CSc1nnc(-c2ccc(-c3ccc(Cl)c(Cl)c3)o2)[nH]1 [Compound 1-9]
6.73	O=C(O)CSc1nnc(-c2ccc(-c3cc(Cl)cc(Cl)c3)o2)[nH]1 [Compound 1-10]
6.73	COc1ccc2cc(C#Cc3ccc(-c4nnc(SCC(=O)O)[nH]4)o3)ccc2c1 [Compound 1-11]
6.72	Cn1c2ccccc2c2ccc(-c3ccc(-c4nnc(SCC(=O)O)[nH]4)o3)cc21 [Compound 1-12]
6.71	O=C(O)CSc1nnc(-c2ccc(-c3cccc(OCc4cccc(OC(F)F)c4)c3)o2)[nH]1 [Compound 1-13]
6.67	Cn1ccc2ccc(-c3ccc(-c4nnc(SCC(=O)O)[nH]4)o3)cc21 [Compound 1-14]
6.63	O=C(O)CSc1nnc(-c2ccc(-c3cnc4ccccc4c3)o2)[nH]1 [Compound 1-15]
6.62	COc1ccc2cc(-c3ccc(-c4nnc(SCC(=O)O)[nH]4)o3)ccc2c1 [Compound 1-16]

pIC50	SMILES
6.61	COc1ccc(-c2ccc(-c3nnc(SCC(=O)O)[nH]3)o2)cc1C=O [Compound 1-17]
6.60	N#Cc1ccc2[nH]c(-c3ccc(-c4nnc(SCC(=O)O)[nH]4)o3)cc2c1 [Compound 1-18]
6.59	O=C(O)CSc1nnc(-c2ccc(C#Cc3ccc4ccccc4c3)o2)[nH]1 [Compound 1-19, 2-((5-(5-(naphthalen-2-ylethynyl)furan-2-yl)-4H-1,2,4-triazol-3-yl)thio)acetic acid]
6.59	O=C(O)CSc1nnc(-c2ccc(-c3cc(Cl)cc(OCc4ccccc4)c3)o2)[nH]1 [Compound 1-20]
6.58	O=C(O)CSc1nnc(-c2ccc(-c3cccc(OC(F)(F)F)c3)o2)[nH]1 [Compound 1-21]
6.57	O=C(O)CSc1nnc(-c2ccc(-c3ccc4cc(-c5ccccc5)[nH]c4c3)o2)[nH]1 [Compound 1-22]
6.56	O=C(O)CSc1nnc(-c2ccc(-c3cccc(OCc4ccccc4)c3)o2)[nH]1 [Compound 1-23]
6.56	O=C(O)CSc1nnc(-c2ccc(-c3cccc(OCc4cccc(Cl)c4)c3)o2)[nH]1 [Compound 1-24]
6.55	O=C(O)CSc1nnc(-c2ccc(-c3ccc(Oc4ccccc4)cc3)o2)[nH]1 [Compound 1-25]
6.55	O=C(O)CSc1nnc(-c2ccc(-c3ccc4sccc4c3)o2)[nH]1 [Compound 1-26]
6.51	CCCOc1ccc(-c2ccc(-c3nnc(SCC(=O)O)[nH]3)o2)cc1Cl [Compound 1-27]
6.51	O=C(O)CSc1nnc(-c2ccc(-c3cc(Cl)ccc3F)o2)[nH]1 [Compound 1-28]
6.50	O=C(O)CSc1nnc(-c2ccc(-c3ccc(F)c(Cl)c3)o2)[nH]1 [Compound 1-29]
6.50	O=C(O)CSc1nnc(-c2ccc(-c3ccc4ncccc4c3)o2)[nH]1 [Compound 1-30, 2-((3-(5-(quinolin-6-yl)furan-2-yl)-1H-1,2,4-triazol-5-yl)thio)acetic acid]
6.49	COc1ccc2cc(-c3oc(-c4nnc(SCC(=O)O)[nH]4)cc3C#CCO)ccc2c1 [Compound 1-31]
6.49	O=C(O)CSc1nnc(-c2ccc(-c3cc4ccccc4o3)o2)[nH]1 [Compound 1-32]
